Where two headings read alike, the source gives them in different places.
How the values were obtained:
DU145 (prostate cancer) = test: Effect of compounds on tumor cell lines (assay of Latham et al.), DU145; assay type: cell-based; settings: DU145 cells, read-out: DU 145 potency (IC50)
How it was run: (§1)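 K562 or DU145 cells plated at 2.5×10^4 cells/well, treated 24 h later with compound in DMSO at 1 μM to 100 μM (0.1 μM to 100 μM for one compound). Activity judged by microscopic observation after 96 h; where needed, viable cells counted by trypan blue exclusion.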

[1] = test system: K562 (chronic myelogenous leukaemia); test: Effect of compounds on tumor cell lines (assay of Latham et al.), K562; assay type: cell-based; settings: K562 cells, read-out: K 562 potency (IC50)
How it was run: as §1

[2] = 96 hours after treatment, 1 μM to 100 μM
[3] = Table 1, examined 96 hours after treatment, 1 μM to 100 μM in DMSO
[4] = Table 4, examined 96 hours after treatment, 1 μM to 100 μM in DMSO

| IC50 (DU145 (prostate cancer); [2]) | IC50 [1, 2] | Compound | IC50 (DU145 (prostate cancer); [3]) | IC50 [1, 3] | further results |
| --- | --- | --- | --- | --- | --- |
| 1 to 10 µM | 1 to 10 µM | O=C(O)c1ccc(C(=O)C(=Cc2ccc(F)c([N+](=O)[O-])c2)SCc2ccccc2Cl)cc1 [Example 303] |  |  |  |
| 10 to 25 µM | 25 to 50 µM | O=C(C(=Cc1ccc(O)c(C(=O)O)c1)SCc1ccc(Br)cc1)c1ccc(Br)cc1 [Example 151] |  |  |  |
| 1 to 10 µM | 1 to 10 µM | O=C(/C(=C\c1ccc([N+](=O)[O-])c(O)c1)SCc1ccc(Br)cc1)c1ccc(C(F)(F)F)cc1 [Example 160] |  |  |  |
| 1 to 10 µM | ≤ 1 µM | O=C(O)c1ccc(C(=O)C(=Cc2ccc(Br)c([N+](=O)[O-])c2)SCc2ccc(Cl)cc2Cl)cc1 [Example 299] |  |  |  |
| 10 to 25 µM | 1 to 10 µM | Cc1ccc(CSC(=Cc2ccc(Cl)cc2)C(=O)c2ccc(Cl)cc2)cc1 [Example 288] |  |  |  |
| 1 to 10 µM | 1 to 10 µM | COc1ccccc1C=C(SCc1ccc(Cl)cc1)C(=O)c1ccc(Cl)cc1 [Example 199] |  |  |  |
| 1 to 10 µM | 1 to 10 µM | O=C(NCCN1CCOCC1)c1ccc(C(=O)C(=Cc2ccc(F)c([N+](=O)[O-])c2)SCc2ccc(Br)cc2)cc1 [Example 312] |  |  |  |
| 1 to 10 µM | 1 to 10 µM | O=C(O)c1ccc(C(=O)/C(=C\c2ccc(Cl)c([N+](=O)[O-])c2)SCc2ccc(C(F)(F)F)cc2)cc1 [Example 350] |  |  |  |
| 1 to 10 µM | 1 to 10 µM | O=C(C(=Cc1ccc(F)c([N+](=O)[O-])c1)SCc1ccc(Br)cc1)c1c(F)c(F)c(F)c(F)c1F [Example 310] |  |  |  |
| 1 to 10 µM | 1 to 10 µM | O=C(C(=Cc1ccc([N+](=O)[O-])cc1)SCc1ccc(Cl)cc1)c1ccc(Cl)cc1 [Example 326] |  |  |  |
| 25 to 50 µM | > 100 µM | O=C(C(=Cc1c(O)cc(O)cc1O)SCc1ccc(Cl)cc1Cl)c1ccc(Cl)cc1 [Example 115] |  |  |  |
| 10 to 25 µM | 10 to 25 µM | O=C(/C(=C\c1ccc(O)c([N+](=O)[O-])c1)SCc1ccc(Br)cc1)c1c(F)c(F)c(F)c(F)c1F [Example 175] |  |  |  |
| 50 to 100 µM | 50 to 100 µM | O=C(O)c1ccc(C(=O)/C(=C\c2ccc(O)c([N+](=O)[O-])c2)SCc2ccc(Br)cc2)cc1 [Example 181] |  |  |  |
| 25 to 50 µM | 25 to 50 µM | Cc1ccc(CSC(=Cc2cccc(Cl)c2Cl)C(=O)c2ccc(Cl)cc2)cc1 [Example 271] |  |  |  |
| 1 to 10 µM | 1 to 10 µM | NS(=O)(=O)c1ccc(C(=O)/C(=C\c2ccc(F)c([N+](=O)[O-])c2)SCc2ccc(F)cc2)cc1 [Example 343] |  |  |  |
| 25 to 50 µM | 25 to 50 µM | O=C(C(=Cc1ccc(Cl)cc1Cl)SCc1ccc(Cl)cc1)c1ccc(Cl)cc1 [Example 195] |  |  |  |
| 1 to 10 µM | ≤ 1 µM | O=C(/C(=C\c1ccc(F)c([N+](=O)[O-])c1)SCc1ccc(F)cc1)c1ccc(F)cc1 [Example 341] |  |  |  |
| 10 to 25 µM | 10 to 25 µM | COc1cc(OC)c(C=C(SCc2ccc(Cl)c(Cl)c2)C(=O)c2ccc(Cl)cc2)c(OC)c1 [Example 137] |  |  |  |
| > 100 µM | > 100 µM | O=C(C(=Cc1ccc(F)cc1)SCc1ccc(Br)cc1)c1ccc(SCc2ccc(Br)cc2)c([N+](=O)[O-])c1 [Example 319] |  |  |  |
| 10 to 25 µM | 10 to 25 µM | O=C(C(=Cc1c[nH]c2ccccc12)SCc1ccc(Cl)cc1Cl)c1ccc(Cl)cc1 [Example 118] |  |  |  |
| 1 to 10 µM | ≤ 1 µM | CCN(CC)CCNC(=O)c1ccc(C(=O)C(=Cc2ccc(F)c([N+](=O)[O-])c2)SCc2ccc(Br)cc2)cc1 [Example 313] |  |  |  |
| 1 to 10 µM | 1 to 10 µM | O=C(O)c1ccc(C(=O)C(=Cc2ccc(N3CCN(Cc4ccccc4)CC3)c([N+](=O)[O-])c2)SCc2ccc(F)cc2)cc1 [Example 328] |  |  |  |
| 10 to 25 µM | 10 to 25 µM | O=C(/C(=C\c1ccc(O)c([N+](=O)[O-])c1)SCc1ccc(Br)cc1)c1ccc([N+](=O)[O-])cc1 [Example 184] |  |  |  |

Further lines, the compound ahead of its results:

| Compound | IC50 (DU145 (prostate cancer); [2]) | IC50 [1, 2] | IC50 (DU145 (prostate cancer); [3]) | IC50 [1, 3] | further results |
| --- | --- | --- | --- | --- | --- |
| COC(=O)c1ccc(C(=O)/C(=C\c2ccc(F)c([N+](=O)[O-])c2)SCc2ccc(Br)cc2)cc1 [Example 441, (E)-methyl-4-(2-(4-bromobenzylthio)-3-(4-fluoro-3-nitrophenyl)acryloyl)benzoate] |  |  |  |  | IC50 (DU145 (prostate cancer); Homo sapiens, DU-145, Table 5, examined 96 hours after treatment, 0.1 μM to 100 μM in DMSO): ≤ 1 µM; IC50 ([1]; Homo sapiens, Table 5, examined 96 hours after treatment, 0.1 μM to 100 μM in DMSO): ≤ 1 µM |
| Cc1ccsc1C=C(SCc1ccc(F)cc1)C(=O)c1ccc(Br)cc1 [Example 246] | 50 to 100 µM | > 100 µM |  |  |  |
| Cc1ccc(SC(=Cc2cc([N+](=O)[O-])ccc2F)C(=O)c2ccc(Cl)cc2)cc1 [Example 74] |  |  | 10 to 25 µM | 1 to 10 µM |  |
| Cc1ccc(SC(=Cc2ccc[nH]2)C(=O)c2ccc(Cl)cc2)cc1 [Example 76] |  |  | 10 to 25 µM | 10 to 25 µM |  |
| COc1cc(OC)c(C=C(Sc2ccc(C)cc2)C(=O)c2ccc(Cl)cc2)c(OC)c1 [Example 70] |  |  | > 100 µM | 25 to 50 µM |  |
| O=C(O)c1ccc(C(=O)/C(=C\c2ccc(Br)c([N+](=O)[O-])c2)SCc2ccc(Br)cc2)cc1 [Example 165] | 1 to 10 µM | 1 to 10 µM |  |  |  |
| Cc1ccc(CSC(=Cc2ccc(C)s2)C(=O)c2ccc(Cl)cc2)cc1 [Example 298] | 50 to 100 µM | 50 to 100 µM |  |  |  |
| COc1ccc(C=C(Sc2ccc(Br)cc2)C(=O)c2ccc(Br)cc2)c(F)c1 [Example 23] |  |  | 10 to 25 µM | 1 to 10 µM |  |
| COc1cc(C=C(Sc2ccc(Br)cc2)C(=O)c2ccc(Br)cc2)ccc1O [Example 41] |  |  | 1 to 10 µM | 1 to 10 µM |  |
| Cc1ccc(SC(=Cc2ccc(-c3ccccc3)cc2)C(=O)c2ccc(Br)cc2)cc1 [Example 110] |  |  | 50 to 100 µM | 25 to 50 µM |  |
| CCOc1ccc(C=C(Sc2ccc(C)cc2)C(=O)c2ccc(Cl)cc2)cc1OC [Example 93] |  |  | 25 to 50 µM | 10 to 25 µM |  |
| O=C(C(=Cc1ccc(Br)cc1)Sc1ccccc1Br)c1ccc(Br)cc1 [Example 9] |  |  | 1 to 10 µM | 1 to 10 µM |  |
| O=C(/C(=C\c1ccc(O)c([N+](=O)[O-])c1)S(=O)(=O)Cc1ccc(Br)cc1)c1c(F)c(F)c(F)c(F)c1F [Example 373] |  |  |  |  | IC50 (DU145 (prostate cancer); [4]): 50 to 100 µM; IC50 [1, 4]: 50 to 100 µM |
| O=C(C(=Cc1ccc(Br)cc1)SCc1ccc(Cl)cc1)c1ccc(Br)cc1 [Example 214] | 1 to 10 µM | 1 to 10 µM |  |  |  |
| COc1ccc(C=C(SCc2ccc(Cl)cc2)C(=O)c2ccc(Cl)cc2)cc1O [Example 204] | 1 to 10 µM | ≤ 1 µM |  |  |  |
| O=C(C(=Cc1ccc(OCc2ccccc2)cc1)SCc1ccccc1Cl)c1ccccc1Cl [Example 128] | 1 to 10 µM | 1 to 10 µM |  |  |  |
| O=C(C(=Cc1ccc(Br)cc1)SCc1ccc(F)cc1)c1ccc(Cl)cc1 [Example 254] | 10 to 25 µM | 1 to 10 µM |  |  |  |

| Compound | IC50 (DU145 (prostate cancer); [2]) | IC50 [1, 2] | IC50 (DU145 (prostate cancer); [3]) | IC50 [1, 3] | further results |
| --- | --- | --- | --- | --- | --- |
| O=C(C(=Cc1ccc(Br)cc1)Sc1ccc(Br)cc1)c1ccc(Br)cc1 [Example 35] |  |  | 1 to 10 µM | 1 to 10 µM |  |
| O=C(C(=Cc1ccc(Cl)cc1)SCc1ccc(Cl)cc1)c1ccccc1Cl [Example 217] | 50 to 100 µM | 1 to 10 µM |  |  |  |
| O=C(C(=Cc1cc(Cl)cc(Cl)c1Cl)Sc1ccccc1Br)c1ccc(Cl)cc1 [Example 3] |  |  | 25 to 50 µM | 50 to 100 µM |  |
| O=C(C(=Cc1c(O)cc(O)cc1O)Sc1ccc(Br)cc1)c1ccc(Cl)cc1 [Example 13] |  |  | 25 to 50 µM | 50 to 100 µM |  |
| CCN(CC)CCNC(=O)c1c(C)[nH]c(C=C(SCc2ccc(F)cc2)C(=O)c2ccc(C(=O)O)cc2)c1C [Example 248] | 50 to 100 µM | 50 to 100 µM |  |  |  |
| Cc1ccc(SC(=Cc2ccc(F)c([N+](=O)[O-])c2)C(=O)c2ccc(Br)cc2)cc1 [Example 113] |  |  | 1 to 10 µM | 1 to 10 µM |  |
| Cc1ccc(SC(=Cc2sccc2C)C(=O)c2ccc(Br)cc2)cc1 [Example 82] |  |  | > 100 µM | 50 to 100 µM |  |
| O=C(C(=Cc1ccc(Oc2ccccc2)cc1)Sc1ccc(Br)cc1)c1ccc(Br)cc1 [Example 50] |  |  | 50 to 100 µM | 50 to 100 µM |  |
| O=C(C(=Cc1ccc([N+](=O)[O-])c(O)c1)Sc1c(F)c(F)c(F)c(F)c1F)c1ccc(Br)cc1 [Example 1] |  |  | 10 to 25 µM | 1 to 10 µM |  |
| CCOC(=O)c1c(C)[nH]c(C=C(SCc2ccc(Br)cc2)C(=O)c2ccc(SCc3ccc(Br)cc3)c([N+](=O)[O-])c2)c1C [Example 309] | > 100 µM | > 100 µM |  |  |  |
| Cc1ccc(SC(=Cc2ccc(Cl)c(Cl)c2)C(=O)c2ccc(Br)cc2)cc1 [Example 77] |  |  | 50 to 100 µM | 50 to 100 µM |  |
| O=C(C(=Cc1ccc(O)c([N+](=O)[O-])c1)Sc1ccc(Br)cc1)c1c(F)c(F)c(F)c(F)c1F [Example 42] |  |  | 1 to 10 µM | 1 to 10 µM |  |
| O=C(C(=Cc1ccc(Cl)cc1)Sc1ccc(Cl)cc1)c1ccc(Cl)cc1 [Example 53] |  |  | 1 to 10 µM | 1 to 10 µM |  |
| Cc1ccc(CSC(=Cc2c[nH]c3ccc(Cl)cc23)C(=O)c2ccc(Cl)cc2)cc1 [Example 296] | 1 to 10 µM | 1 to 10 µM |  |  |  |
| CN(C)c1ccc(C=C(Sc2ccccc2Br)C(=O)c2ccc(Br)cc2)cc1 [Example 12] |  |  | > 100 µM | > 100 µM |  |
| O=C(C(=Cc1ccc(F)cc1F)Sc1ccc(Br)cc1)c1ccc(Br)cc1 [Example 17] |  |  | 1 to 10 µM | 1 to 10 µM |  |
